Test: Redox flow battery cell test (flow-through laboratory cell), galvanostatic charge/discharge cycling with phenazine anolyte and ferrocyanide catholyte
Assay type: physicochemical
Conditions: range: (i) upper charging value minus initial discharging value, (ii) initial charging value minus ultimate discharging value; from Table 1 (for II 0.87M)
Excerpt: FT-Cells (“Flow Through”):
For electrochemical characterization, a small laboratory cell was used. A graphite felt (with an area of 6 cm^2, 6 mm in thickness, supplier: SGL Sigracell GFA 6EA) in combination with a bipolar plate (4.1 cm×4.1 cm, SGL Sigracell TF6) was employed as both the positive and negative electrode. A cation exchange membrane (630K or 620PE, supplier: fumatech) was used to separate the positive and negative electrolytes. The membrane was conditioned in 0.5 M Base (KOH/NaOH=50 mol %/50 mol %) for at least 150 h prior to each test. An anolyte volume of 12 mL was used for every experiment while the pH of the anolyte solution is adjusted using a 1:1 mixture of KOH/NaOH or solely KOH. The catholyte compositions are listed in table 1 and the catholyte was always employed in at least 1.05 fold stoichiometric excess in order to obtain charge limitation solely due to the phenazine electrolyte (see table 1). The catholyte volume for (IV) is 60 mL (0.4 M KOH; 0.4 M NaOH), for (III) 30 mL (0.2 M KOH and 0.2 M NaOH), and for (I) 20 mL (0.3 M KOH and 0.3 M NaOH). Both electrolytes were pumped by peristaltic pumps (Drifton BT100-1L, Cole Parmer Ismatec MCP and BVP Process IP 65) at a rate of 24 mL/min to the corresponding electrodes, respectively. The electrolyte reservoirs were purged with N2 gas for 1 h before start of charging and the inert atmosphere was maintained during the course of the experiments.
Electrochemical testing was performed on a BaSyTec (BaSyTec GmbH, 89176 Asselfingen, Germany) or a Bio-Logic (Bio-Logic Science Instruments, Seyssinet-Pariset 38170, France) battery test system. For galvanostatic cycling, the cell was charged at a current density of […] and discharged at the same current density with the in table 1 listed voltage cut-offs. […]

SMILES	difference in plateaus [V]
CN(CCO)c1cc2nc3ccc(S(=O)(=O)O)cc3nc2cc1O [IV, 7-[(2-hydroxyethyl)(methyl)amino]-8-hydroxyphenazine-2-sulfonic acid]	0.20-0.25 V
CN(C)c1cc2nc3ccc(S(=O)(=O)O)cc3nc2cc1O [I, 7-(dimethylamino)-8-hydroxyphenazine-2-sulfonic acid]	0.15-0.16 V
O=S(=O)(O)c1ccc2nc3cc(O)c(O)cc3nc2c1 [DHPS, 7,8-Dihydroxyphenazine-2-sulfonic acid, reference compound]	0.29-0.32 V

Source: US12655111B2, “Phenazine-based compounds” (CMBLU Energy AG, priority 2020, dated 2026)
